Common to all, as to assay type: functional
Assay [1] relates to Mycolicibacterium phlei. Nature of the assay: Antimycobacterial activity against Mycobacterium phlei NCIM 2240 assessed as growth inhibition at 0.1 mg/ml after 24 hr by agar well diffusion method. The settings on record: NCIM 2240, 24 h, read-out: DIZ. Background: In agar diffusion tests the substance spreads into inoculated agar from a disc or well.
The test system of assay [2] is Mycolicibacterium phlei. Nature of the assay: Antimycobacterial activity against Mycobacterium phlei NCIM 2240 assessed as growth inhibition at 1 mg/ml after 24 hr by agar well diffusion method. The settings on record: NCIM 2240, 24 h, read-out: DIZ.
For assay [3], the system named is Mycolicibacterium smegmatis. The experiment in a line: Antimycobacterial activity against Mycobacterium smegmatis NCIM 5138 assessed as growth inhibition after 24 hr by agar well diffusion method. The following applies: NCIM 5138, 24 h.
For assay [4], the system named is Mycolicibacterium smegmatis. The experiment in a line: Antimycobacterial activity against Mycobacterium smegmatis NCIM 5138 assessed as growth inhibition at 1 mg/ml after 24 hr by agar well diffusion method. The following applies: NCIM 5138, 24 h, read-out: DIZ.
The subject of assay [5] is Mycolicibacterium phlei. Nature of the assay: Antimycobacterial activity against Mycobacterium phlei NCIM 2240 assessed as growth inhibition at 0.5 mg/ml after 24 hr by agar well diffusion method. The following applies: NCIM 2240, 24 h, read-out: DIZ.
Assay [6] relates to Mycolicibacterium smegmatis. Nature of the assay: Antimycobacterial activity against Mycobacterium smegmatis NCIM 5138 assessed as growth inhibition at 0.1 mg/ml after 24 hr by agar well diffusion method. The following applies: NCIM 5138, 24 h, read-out: DIZ.
For assay [7], the system named is Mycobacterium tuberculosis. The experiment in a line: Antimycobacterial activity against Mycobacterium tuberculosis MTCC 300 assessed as growth inhibition at 1 mg/ml after 24 hr by agar well diffusion method. The settings on record: MTCC 300, 24 h, read-out: DIZ.
In assay [8] the test system is Mycobacterium tuberculosis. Nature of the assay: Antimycobacterial activity against Mycobacterium tuberculosis MTCC 300 assessed as growth inhibition after 24 hr by agar well diffusion method. The following applies: MTCC 300, 24 h.
Assay [9] concerns Mycolicibacterium phlei. Nature of the assay: Antimycobacterial activity against Mycobacterium phlei NCIM 2240 assessed as growth inhibition after 24 hr by agar well diffusion method. The following applies: NCIM 2240, 24 h.
Assay [10] deals with Mycolicibacterium smegmatis. The experiment in a line: Antimycobacterial activity against Mycobacterium smegmatis NCIM 5138 assessed as growth inhibition at 0.5 mg/ml after 24 hr by agar well diffusion method. The settings on record: NCIM 5138, 24 h, read-out: DIZ.
Assay [11] has as its system Mycobacterium tuberculosis. The experiment in a line: Antimycobacterial activity against Mycobacterium tuberculosis MTCC 300 assessed as growth inhibition at 0.1 mg/ml after 24 hr by agar well diffusion method. The settings on record: MTCC 300, 24 h, read-out: DIZ.
Assay [12] deals with Mycobacterium tuberculosis. The experiment in a line: Antimycobacterial activity against Mycobacterium tuberculosis MTCC 300 assessed as growth inhibition at 0.5 mg/ml after 24 hr by agar well diffusion method. The settings on record: MTCC 300, 24 h, read-out: DIZ.

Converted amounts (≈) assume the structure as drawn.

What is called MIC is the smallest concentration in the dilution series that meets the test's criterion for growth inhibition.

For the compound `Cc1nn(-c2ccccc2)c2c1C(c1cn(-c3ccccc3)nc1-c1ccc(Cl)cc1)C1=C(NC(C)(c3ccc(O)c(Cl)c3O)NC1=O)O2` (stereo not given), the zone of inhibition at 100 µg/mL in the assay on Mycolicibacterium phlei [1] was found to be 2.5 mm; in assay [6], 3.8 mm. Further, the zone of inhibition at 1000 µg/mL in the assay with Mycolicibacterium phlei [2] stood at 6.5 mm; in [4], 6.8 mm; in [7] it was 1.5 mm. For the same compound, the values for the MIC (in assay [3]; in [8]; in the assay with Mycolicibacterium phlei [9]) were 70 µg/mL (≈ 101 µM), 1000 µg/mL (≈ 1450 µM) and 90 µg/mL (≈ 130 µM), respectively. In addition, the values for the zone of inhibition at 500 µg/mL (with Mycolicibacterium phlei [5]; in [10]) were 4 mm and 5.2 mm, respectively.
Regarding `Cc1nn(-c2ccccc2)c2c1C(c1cn(-c3ccccc3)nc1-c1ccc(Cl)cc1)C1=C(NC(C)(c3cc(Cl)cc(I)c3O)NC1=O)O2` (stereo not given), the zone of inhibition at 1000 µg/mL amounted to 2.8 mm with Mycolicibacterium phlei [2] and 5.4 mm in [4]. Also, the minimum inhibitory concentration (MIC) in assay [3] was 70 µg/mL (≈ 87.3 µM); in the assay with Mycolicibacterium phlei [9], 50 µg/mL (≈ 62.4 µM). In addition, the values for the zone of inhibition at 500 µg/mL (with Mycolicibacterium phlei [5]; in assay [10]) were 1.5 mm and 5 mm, respectively. The zone of inhibition at 100 µg/mL in [6] worked out at 4.2 mm.
On to `Cc1nn(-c2ccccc2)c2c1C(c1cn(-c3ccccc3)nc1-c1ccc(F)cc1)C1=C(NC(C)(c3cc(Cl)ccc3O)NC1=O)O2` (stereo not given), for which, in assay [3], the MIC turned out to be 100 µg/mL (≈ 152 µM). The zone of inhibition at 1000 µg/mL in assay [4] was found to be 3.2 mm. In addition, the zone of inhibition at 100 µg/mL in [6] is 1.9 mm. Also, in assay [10], the zone of inhibition at 500 µg/mL is 2.2 mm.
With `Cc1nn(-c2ccccc2)c2c1C(c1cn(-c3ccccc3)nc1-c1ccc(F)cc1)C1=C(NC(C)(c3ccc(O)cc3O)NC1=O)O2` (stereo not given), the figures for the zone of inhibition at 1000 µg/mL (in the assay on Mycolicibacterium phlei [2]; in assay [4]) were 2.2 mm and 6.5 mm, respectively. Further, the minimal inhibitory concentration (MIC) in assay [3] amounted to 40 µg/mL (≈ 62.4 µM); in the assay on Mycolicibacterium phlei [9], 50 µg/mL (≈ 78 µM). Moreover, the figures for the zone of inhibition at 500 µg/mL (in the assay with Mycolicibacterium phlei [5]; in assay [10]) were 1.5 mm and 5.5 mm, respectively. Moreover, the zone of inhibition at 100 µg/mL in assay [6] is 4.1 mm.
With `Cc1nn(-c2ccccc2)c2c1C(c1cn(-c3ccccc3)nc1-c1ccc(F)cc1)C1=C(NC(C)(c3ccc(O)c(Cl)c3O)NC1=O)O2` (stereo not given), the zone of inhibition at 100 µg/mL turned out to be 3.4 mm with Mycolicibacterium phlei [1] and 4.5 mm in assay [6]. Also, the zone of inhibition at 1000 µg/mL came to 2.5 mm with Mycolicibacterium phlei [2], 11.5 mm in assay [4] and 2 mm in assay [7]. The MIC in assay [3] is 70 µg/mL (≈ 104 µM); in assay [8], 1000 µg/mL (≈ 1480 µM); in the assay with Mycolicibacterium phlei [9], 50 µg/mL (≈ 74.1 µM). In addition, the values for the zone of inhibition at 500 µg/mL (in the assay on Mycolicibacterium phlei [5]; in assay [10]) were 1.5 mm and 7.6 mm, respectively.
For `Cc1nn(-c2ccccc2)c2c1C(c1cn(-c3ccccc3)nc1-c1ccc(F)cc1)C1=C(NC(C)(c3cc(Cl)cc(I)c3O)NC1=O)O2` (stereo not given), the values for the zone of inhibition at 100 µg/mL (in the assay with Mycolicibacterium phlei [1]; in assay [6]) were 5.8 mm and 5.6 mm, respectively. Also, the zone of inhibition at 1000 µg/mL with Mycolicibacterium phlei [2] amounted to 8.6 mm; in assay [4] it was 12 mm. Besides, the MIC (in assay [3]; in the assay on Mycolicibacterium phlei [9]) was 60 µg/mL (≈ 76.4 µM) throughout. Besides, the zone of inhibition at 500 µg/mL with Mycolicibacterium phlei [5] came to 7.1 mm; in assay [10] it was 9 mm.
For the compound `COc1ccc(-c2nn(-c3ccccc3)cc2C2C3=C(NC(C)(c4cc(Cl)ccc4O)NC3=O)Oc3c2c(C)nn3-c2ccccc2)cc1` (stereo not given), the values for the zone of inhibition at 1000 µg/mL (with Mycolicibacterium phlei [2]; in [4]) were 2 mm and 5.2 mm, respectively. The minimum inhibitory concentration (MIC) in assay [3] stood at 90 µg/mL (≈ 134 µM); with Mycolicibacterium phlei [9], 1000 µg/mL (≈ 1490 µM). The zone of inhibition at 100 µg/mL in [6] came to 2.8 mm. Moreover, in [10], the zone of inhibition at 500 µg/mL amounted to 4.2 mm.
`COc1ccc(-c2nn(-c3ccccc3)cc2C2C3=C(NC(C)(c4cc(Cl)cc(I)c4O)NC3=O)Oc3c2c(C)nn3-c2ccccc2)cc1` (stereo not given): the zone of inhibition at 100 µg/mL in the assay on Mycolicibacterium phlei [1] was determined as 4 mm; in assay [11], 2 mm; in [6], 8 mm. For the same compound, the zone of inhibition at 1000 µg/mL with Mycolicibacterium phlei [2] was 8.8 mm; in assay [4] it was 12 mm; in assay [7] it was 3.6 mm. The figures for the MIC (in assay [3]; in assay [8]; with Mycolicibacterium phlei [9]) were 50 µg/mL (≈ 62.7 µM), 100 µg/mL (≈ 125 µM) and 70 µg/mL (≈ 87.8 µM), respectively. In addition, the results for the zone of inhibition at 500 µg/mL (in the assay with Mycolicibacterium phlei [5]; in [12]; in [10]) were 6.2 mm, 2.5 mm and 10.8 mm, respectively.
In the case of `Cc1nn(-c2ccccc2)c2c1C(c1cn(-c3ccccc3)nc1-c1ccc(Cl)cc1)C1=C(NC(C)(c3cc(Cl)ccc3O)NC1=O)O2` (stereo not given), the zone of inhibition at 100 µg/mL with Mycolicibacterium phlei [1] is 2 mm; in assay [6] it was 1.5 mm. In addition, the results for the zone of inhibition at 1000 µg/mL (in the assay with Mycolicibacterium phlei [2]; in [4]; in [7]) were 3.5 mm, 3.6 mm and 1.9 mm, respectively. In addition, the results for the minimal inhibitory concentration (MIC) (in assay [3]; in [8]; with Mycolicibacterium phlei [9]) were 100 µg/mL (≈ 148 µM), 1000 µg/mL (≈ 1480 µM) and 100 µg/mL (≈ 148 µM), respectively. Besides, the zone of inhibition at 500 µg/mL with Mycolicibacterium phlei [5] amounted to 2.4 mm; in assay [10], 2.3 mm.
On to `Cc1nn(-c2ccccc2)c2c1C(c1cn(-c3ccccc3)nc1-c1ccc(Cl)cc1)C1=C(NC(C)(c3ccc(O)cc3O)NC1=O)O2` (stereo not given), for which the zone of inhibition at 100 µg/mL is 2.5 mm in the assay on Mycolicibacterium phlei [1] and 1.6 mm in [6]. In addition, the zone of inhibition at 1000 µg/mL with Mycolicibacterium phlei [2] was 4.5 mm; in [4], 3.2 mm. In addition, the results for the MIC (in assay [3]; with Mycolicibacterium phlei [9]) were 100 µg/mL (≈ 152 µM) and 70 µg/mL (≈ 107 µM), respectively. For the same compound, the zone of inhibition at 500 µg/mL in the assay on Mycolicibacterium phlei [5] was 3.8 mm; in [10], 1.9 mm.
Consider `CO[C@H]1/C=C/O[C@@]2(C)Oc3c(C)c(O)c4c(O)c(c(/C=N/N5CCN(C)CC5)c(O)c4c3C2=O)NC(=O)/C(C)=C\C=C\[C@H](C)[C@H](O)[C@@H](C)[C@@H](O)[C@@H](C)[C@H](OC(C)=O)[C@@H]1C` [RIFAMPIN], for which the minimum inhibitory concentration (MIC) in [3] came to 480 µg/mL (≈ 583 µM); in assay [8] it was 280 µg/mL (≈ 340 µM); in the assay on Mycolicibacterium phlei [9], 40 µg/mL (≈ 48.6 µM).

The record behind these values is ChEMBL document CHEMBL3045649, “Green approach towards synthesis of substituted pyrazole-1,4-dihydro,9-oxa,1,2,6,8-tetrazacyclopentano[b]naphthalene-5-one derivatives as antimycobacterial agents” (2013).
